Experimental findings from US5010059A, “Pharmaceutical products and lactosyl compounds” (Solco Basel AG, priority 1987, dated 1991) are described below.

One assay deals with GalN/endotoxin hepatitis. Briefly: GalN/endotoxin hepatitis, cytoprotective effect of the compounds. In kind it is in vivo, albino mice of the NMRI strain. The conditions noted are these: 200 μg/kg i.p. 1 hour before GalN/endotoxin; serum 9 hours later; n.s. not significant, *p ≤ 0.05, **p ≤ 0.01. The source says: In order to gain a deeper insight into the pharmacological properties of the compounds of the formula I, they have been examined for any cytoprotective effects they may have. The cytoprotective effect can be shown, inter alia, by the method described by A. Wendel and G. Tiegs in Biochemical Pharmacology 35 (1986), 2115-2118. This is based on the impairment of liver function as a consequence of sensitization of the liver due to administration of D-galactosamine and simultaneous treatment with endotoxins.
D-galactosamine (abbreviated to GalN) causes in animals liver damage which is regarded as a model for human viral hepatitis. The mechanism is assumed to be an accumulation of toxic galactosamine derivatives in the liver, which results in a diminution in the biosynthesis of macromolecules such as ribonucleic acids, proteins, glycoproteins and glycogens. These changes in the metabolism may in turn result in cell damage or even death of cells in the liver. The extent of liver damage can be determined by the increase in certain liver enzymes (sorbitol dehydrogenase SDH, serum glutamic-oxalic transaminase SGOT, serum glutamic-pyruvic transaminase SGPT) in the blood and by histology of the liver.
The test is carried out as follows.
Male albino mice of the NMRI strain are pretreated intraperitoneally with 200 μg/kg test substance and, 1 hour thereafter, treated intraperitoneally with 700 mg/kg D-galactosamine and 33 μg/kg endotoxins. 9 hours later, blood is removed by cardiac puncture, and the enzymatic activity in the blood serum is determined according to H. U. Bergmeyer [Methods in Enzymatic Analysis, 3rd edition (1985), volume III]. In this experimental model, the […] (Kupffer cells) actually function as immobilized macrophages.
The content of the liver enzymes SDH, SGOT and SGPT in the serum is expressed in international units (IU) for the enzyme activity; 1 IU=1 μmol of substrate converted/minute in one liter.

The subject of the next assay is cutaneous necrosis. Kind of assay: skin flap test (action promoting healing). It counts as in vivo, Wistar rats. The conditions noted are these: for Area of surviving skin in mm^2 / Area of the necrotic skin in mm^2 / Area of the skin flap / Area of surviving skin in % / Area of the necrotic skin in %: 1.5 ml i.p. daily for 8 days; for Area of surviving skin in mm^2 / Area of the necrotic skin in mm^2 / Area of the skin flap: 5% concentration; for Area of surviving skin in % / Area of the necrotic skin in %: % of skin flap; for Action of the compound in %: increase in area of surviving skin as percentage compared with control. The source says: Various pharmacological tests can be used to test for any therapeutically beneficial effect on damaged cells and tissues. An action promoting healing can be estimated and measured, in particular, by using the so-called skin flap test; the test is based on the development of a cutaneous necrosis and the inhibition thereof as a consequence of the action of the test substance.
Male Wistar rats of body weight 220-240 g in groups of 8 animals for each value which is to be determined are anesthetized with Nembutal (50 mg/kg, i.p.). A 1×3 cm skin flap is cut out, using a scalpel, from the back, is thoroughly washed and is returned to the original site and is sutured. The test animals are given the compound which is to be tested, in 5% concentration in aqueous solution (containing 0.2% ethanol and 1% polyethylene glycol of molecular weight 20,000--or Carbowax ®20; in each case 1.5 ml intraperitoneal), each day for 8 days; the control animals receive only the aqueous medium. Each day drawings are made of the skin flaps on the scale 1:1, with the necrotic sites being colored black. The animals are sacrificed after 8 days, and the drawings are evaluated using a Biotran apparatus, and the total area of the necrotic sites is measured in mm^2. The action promoting healing is expressed as the increase in the area of surviving skin as a percentage compared with the control.

In the assay on GalN/endotoxin hepatitis, `CCCCCCCCCCCCC/C=C/[C@@H](O)[C@H](CO[C@@H]1O[C@H](CO)[C@@H](O[C@@H]2O[C@H](CO)[C@H](O)[C@H](O)[C@H]2O)[C@H](O)[C@H]1O)NC(=O)CCCCCCCCCCCCCCC` [Lac(Pal)-D-Sph, (2S,3R,4E)-1-[4-0-(8-D-galactopyranosyl) -β-D-glucopyranosyloxy]-2-hexadecanoylamino-4-octadecen-3-ol] gave an SDH of 80 ± 30 IU/liter, an SGOT of 80 ± 20 IU/liter and an SGPT of 110 ± 70 IU/liter. In the assay with cutaneous necrosis, the “Area of surviving skin in mm^2” value is reported as 197.6 ± 12.6 mm^2, the “Area of the necrotic skin in mm^2” value is 113.2 ± 13.0 mm^2, the “Area of the skin flap” value is reported as 310.9 ± 6.9 mm^2 and the “Area of surviving skin in %” value is recorded as 63.8%. In the assay on cutaneous necrosis, the “Area of the necrotic skin in %” value is listed as 36.2% and the “Action of the compound in %” value is recorded as “+47.3%”.

In the assay on GalN/endotoxin hepatitis, `CC/C=C\C/C=C\C/C=C\CCCCCCCC(=O)N[C@@H](CO[C@@H]1O[C@H](CO)[C@@H](O)[C@H](O)[C@H]1O)[C@H](O)/C=C/CCCCCCCCCCCCC` [Glu(Linolen)-D-Sph] gave an SDH of 2280 ± 355 IU/liter, an SGOT of 940 ± 170 IU/liter and an SGPT of 3350 ± 630 IU/liter. Also, in the assay with cutaneous necrosis, the “Area of surviving skin in mm^2” value was found to be 107.4 ± 27.3 mm^2, the “Area of the necrotic skin in mm^2” value is reported as 184.1 ± 28.9 mm^2, the “Area of the skin flap” value is on record as 291.5 ± 5.5 mm^2 and the “Area of surviving skin in %” value was 37.2%. Besides, in the assay on cutaneous necrosis, the “Area of the necrotic skin in %” value amounted to 62.8% and the “Action of the compound in %” value is listed as “+144.7%”.

In the assay on GalN/endotoxin hepatitis, `CCCCC/C=C\C/C=C\C/C=C\C/C=C\CCCC(=O)N[C@@H](CO[C@@H]1O[C@H](CO)[C@@H](O[C@@H]2O[C@H](CO)[C@H](O)[C@H](O)[C@H]2O)[C@H](O)[C@H]1O)[C@H](O)/C=C/CCCCCCCCCCCCC` [Lac(Arach)-D-Sph] came in with an SDH of 355 ± 425 IU/liter, an SGOT of 280 ± 260 IU/liter and an SGPT of 290 ± 210 IU/liter. In the assay with cutaneous necrosis, the “Area of surviving skin in mm^2” value is reported as 211.6 ± 33.3 mm^2, the “Area of the necrotic skin in mm^2” value is recorded as 111.5 ± 25.8 mm^2, the “Area of the skin flap” value was 323.1 ± 10.4 mm^2 and the “Area of surviving skin in %” value was 64.1%. Also, in the assay on cutaneous necrosis, the “Area of the necrotic skin in %” value is listed as 35.8% and the “Action of the compound in %” value is “+36.8%”.

In the assay on GalN/endotoxin hepatitis, `CC/C=C\C/C=C\C/C=C\CCCCCCCC(=O)N[C@@H](CO[C@@H]1O[C@H](CO)[C@@H](O[C@@H]2O[C@H](CO)[C@H](O)[C@H](O)[C@H]2O)[C@H](O)[C@H]1O)[C@H](O)/C=C/CCCCCCCCCCCCC` [Lac(Linolen)-D-Sph, (2S,3R,4E)-1-[4-0-(β-D-Galactopyranosyl)-β-D-glucopyranosyloxy-oxy]-2-[(9Z,12Z,15Z)-9,12,15-octadecatrienoylamino]-4-octadecen-3-ol] had an SDH of 290 ± 250 IU/liter, an SGOT of 124 ± 55 IU/liter and an SGPT of 230 ± 76 IU/liter. Further, in the assay with cutaneous necrosis, the “Area of surviving skin in mm^2” value turned out to be 195.9 ± 35.5 mm^2, the “Area of the necrotic skin in mm^2” value was found to be 128.1 ± 34.2 mm^2, the “Area of the skin flap” value was 324.0 ± 10.0 mm^2 and the “Area of surviving skin in %” value is 60.4%. Besides, in the assay on cutaneous necrosis, the “Area of the necrotic skin in %” value is given as 39.6% and the “Action of the compound in %” value was “+22.0%”.

Regarding `CCCCCCCCCCCCC/C=C/[C@@H](O)[C@H](CO[C@@H]1O[C@H](CO)[C@@H](O)[C@H](O)[C@H]1O)NC(=O)CCCCCCCCCCCCCCC` [Glu(Pal)-D-Sph], in the assay on GalN/endotoxin hepatitis, the SDH turned out to be 4720 ± 2320 IU/liter, the SGOT stood at 910 ± 425 IU/liter and the SGPT was determined as 3950 ± 2260 IU/liter. Moreover, in the assay on cutaneous necrosis, the “Area of surviving skin in mm^2” value turned out to be 144.1 ± 9.1 mm^2, the “Area of the necrotic skin in mm^2” value worked out at 113.3 ± 10.6 mm^2, the “Area of the skin flap” value turned out to be 257.4 ± 6.2 mm^2 and the “Area of surviving skin in %” value is recorded as 56.2%. In the assay on cutaneous necrosis, the “Area of the necrotic skin in %” value came out at 43.8% and the “Action of the compound in %” value was “+30.1%”.
